Assays:
[1] = Molar enthalpy of transition or fusion; conditions: Crystal; DSC
[2] = for vapor or sublimation pressure: Transpiration method

c1ccc(-n2c3ccccc3c3ccccc32)cc1 [N-phenylcarbazole]
Conditions | Molar enthalpy of transition or fusion [kcal/mol]
[1] | 4.64

[2]
Conditions | Glass transition temperature [°C] | Normal melting temperature [°C] | vapor or sublimation pressure [kPa]
330.1 K, Crystal | – | – | 9.2e-06
336.4 K, Crystal | – | – | 2.01e-05
343.5 K, Crystal | – | – | 4.67e-05
349.2 K, Crystal | – | – | 9.26e-05
350 K, Metastable liquid | – | – | 0.000128
356.1 K, Crystal | – | – | 0.00019
356.1 K, Metastable liquid | – | – | 0.000224
362.8 K, Crystal | – | – | 0.0003947
362.8 K, Metastable liquid | – | – | 0.000395
368.5 K, Metastable liquid | – | – | 0.000657
372.4 K, Liquid | – | – | 0.000913
377.3 K, Liquid | – | – | 0.001342
Crystal, DTA | – | 94.8 | –
Glass, DSC | -18.3 | – | –
